Measurements reported in US20060079453A1, “Hla binding peptides and their uses” (priority 2002, published 2006).
pIC50: −log10 of the molar value. Like-named read-outs stand apart in the source and are kept apart here. No end group written: not given here.

Key:
Assay in all cases: biochemical
Type in all cases: binding
HLA-B*4402 = HLA-B*4402 (Homo sapiens, UniProt P01889, A223V/A65T/A93T/A95T/D201E/D98Y/E176V/E187L/E204Q/E69K/G107R/H137Y/K202T/L105A/L119I/N104T/N87E/Q56L/Q94N/R106L/R155S/R180D/S101N/S121R/S35A/S48T/T118I/V36M/W191S/Y140D/Y91S)
HLA-B*4403 = HLA-B*4403 (Homo sapiens, UniProt P01889, A223V/A65T/A93T/A95T/D201E/D98Y/E176V/E187L/E204Q/E69K/G107R/H137Y/K202T/L105A/L119I/N104T/N87E/Q56L/Q94N/R106L/R155S/R180L/S101N/S121R/S35A/S48T/T118I/V36M/W191S/Y140D/Y91S)
HLA-B*1801 = HLA-B*1801 (Homo sapiens, UniProt P01889, A329T/A93T/A95T/C349S/D201E/D54G/D98Y/E176V/E187T/E204Q/E69T/K202T/Q94N/R155S/R180L/S121R/V306I/Y140S/Y195H/Y33H/Y91S)
HLA-B*4002 = HLA-B*4002 (Homo sapiens, UniProt P01889, A65T/A93T/A95T/D138N/D201E/D98Y/E176V/E204Q/E69K/K202T/N87E/Q56L/Q94N/R180L/S48T/Y33H/Y91S)
HLA-B*4001 = HLA-B*4001 (Homo sapiens, UniProt P01889, A65T/A93T/A95T/D138N/D98Y/E176V/E69K/N87E/Q56L/Q94N/R180L/S121R/S35A/S48T/T167S/V36M/W171L/Y33H/Y91S)
HLA-B*4501 = HLA-B*4501 (Homo sapiens, UniProt P01889, A329T/A65T/A93T/A95T/C349S/D138N/D201E/D98Y/E176V/E187L/E204Q/E69K/H137Y/K202T/L119W/N87E/Q56L/Q94N/R155S/R180D/S121R/S35A/S48T/V127L/V306I/V36M/W191S/Y140L/Y33H/Y91S)

AENLWLTVY
pIC50 (HLA-B*4402): 6.19 | pIC50 (HLA-B*4403): 6.65 | pIC50 (HLA-B*1801): 6.18 | pIC50 (HLA-B*4002): 6.05 | pIC50 (HLA-B*4001): 5.77

AEIPTRVNY
pIC50 (HLA-B*4403; B*4403): 7.64 | pIC50 (HLA-B*1801; B*1801): 5.77 | pIC50 (HLA-B*4002; B*4002): 5.26 | pIC50 (HLA-B*4001; B*4001): 5.11

AENLWVFVY
pIC50 (HLA-B*4402): 6.46 | pIC50 (HLA-B*4403): 6.51 | pIC50 (HLA-B*4001): 6.07

AENLWKTVY
pIC50 (HLA-B*4403): 6.42 | pIC50 (HLA-B*1801): 6.04 | pIC50 (HLA-B*4002): 6.39 | pIC50 (HLA-B*4001): 6.07

AENLWNTVY
pIC50 (HLA-B*4402): 7.18 | pIC50 (HLA-B*4403): 7.09 | pIC50 (HLA-B*1801): 6.47 | pIC50 (HLA-B*4002): 6.02 | pIC50 (HLA-B*4001): 5.87

AENPWVTVY
pIC50 (HLA-B*4402): 7.74 | pIC50 (HLA-B*4403): 7.28 | pIC50 (HLA-B*1801): 7.57 | pIC50 (HLA-B*4002): 6.65

AEGIVTGQY
pIC50 (HLA-B*4402; B*4402): 6.59 | pIC50 (HLA-B*4501; B*4501): 6.38 | pIC50 (HLA-B*4403; B*4403): 7.92 | pIC50 (HLA-B*1801; B*1801): 5.14 | pIC50 (HLA-B*4001; B*4001): 5.19

AENLWVTVW
pIC50 (HLA-B*4501): 6.69 | pIC50 (HLA-B*4403): 6.49 | pIC50 (HLA-B*1801): 4.65 | pIC50 (HLA-B*4001): 5.88

AENDWVTVY
pIC50 (HLA-B*4402): 7.02 | pIC50 (HLA-B*4403): 6.78 | pIC50 (HLA-B*1801): 6.49 | pIC50 (HLA-B*4001): 6.02

AEMGKFKYSF
pIC50 (HLA-B*4402; B*4402): 7.74 | pIC50 (HLA-B*4403; B*4403): 7.51 | pIC50 (HLA-B*1801; B*1801): 6.81 | pIC50 (HLA-B*4002; B*4002): 8.42

AENLWVTNY
pIC50 (HLA-B*4403): 7.13 | pIC50 (HLA-B*1801): 6.14 | pIC50 (HLA-B*4002): 6.02 | pIC50 (HLA-B*4001): 6.06

AENLWVTVR
pIC50 (HLA-B*4501): 6.63 | pIC50 (HLA-B*4403): 5.83 | pIC50 (HLA-B*1801): 4.48 | pIC50 (HLA-B*4002): 5.76

AENLDVTVY
pIC50 (HLA-B*4402): 6.17 | pIC50 (HLA-B*4403): 6.47 | pIC50 (HLA-B*4002): 4.92 | pIC50 (HLA-B*4001): 6.66

AENLWVTVL
pIC50 (HLA-B*4402): 7.17 | pIC50 (HLA-B*4403): 6.68 | pIC50 (HLA-B*1801): 5.21 | pIC50 (HLA-B*4002): 7.89 | pIC50 (HLA-B*4001): 7.85

AEPLWVTVY
pIC50 (HLA-B*4403): 7.02 | pIC50 (HLA-B*1801): 6.51 | pIC50 (HLA-B*4002): 5.60 | pIC50 (HLA-B*4001): 5.76

AEMGKGSFKY
pIC50 (HLA-B*4501; B*4501): 6.52 | pIC50 (HLA-B*4403; B*4403): 7.05 | pIC50 (HLA-B*1801; B*1801): 5.79 | pIC50 (HLA-B*4002; B*4002): 5.42 | pIC50 (HLA-B*4001; B*4001): 5.19

AEVLWVTVY
pIC50 (HLA-B*4402): 5.82 | pIC50 (HLA-B*4403): 6.41 | pIC50 (HLA-B*4002): 6.36 | pIC50 (HLA-B*4001): 5.81

AENLWVTVI
pIC50 (HLA-B*4501): 7.27 | pIC50 (HLA-B*4403): 7.06 | pIC50 (HLA-B*1801): 4.95 | pIC50 (HLA-B*4002): 8.14 | pIC50 (HLA-B*4001): 7.85

GEISPYPSL
pIC50 (HLA-B*4403): 6.53 | pIC50 (HLA-B*1801): 4.71 | pIC50 (HLA-B*4002): 8.74 | pIC50 (HLA-B*4001): 7.62

AENLWDTVY
pIC50 (HLA-B*4403): 7.17 | pIC50 (HLA-B*1801): 6.11 | pIC50 (HLA-B*4002): 5.68 | pIC50 (HLA-B*4001): 5.94

AENLWVNVY
pIC50 (HLA-B*4402): 6.80 | pIC50 (HLA-B*4501): 6.58 | pIC50 (HLA-B*4403): 7.12

AENLVVTVY
pIC50 (HLA-B*4501): 6.14 | pIC50 (HLA-B*4403): 6.69 | pIC50 (HLA-B*1801): 7.21 | pIC50 (HLA-B*4002): 5.87 | pIC50 (HLA-B*4001): 6.06

ATNLWVTVY
pIC50 (HLA-B*4501; read-out: B*4501): < 4.31 | pIC50 (HLA-B*4403; read-out: B*4403): < 4.37 | pIC50 (HLA-B*1801; read-out: B*1801): 4.75 | pIC50 (HLA-B*4002; read-out: B*4002): < 3.81 | pIC50 (HLA-B*4001; read-out: B*4001): 6.31

AENLWVDVY
pIC50 (HLA-B*4402): 6.48 | pIC50 (HLA-B*4403): 7.04 | pIC50 (HLA-B*1801): 6.38 | pIC50 (HLA-B*4002): 5.46 | pIC50 (HLA-B*4001): 6.15

AENLWFTVY
pIC50 (HLA-B*4501): 7.05 | pIC50 (HLA-B*4403): 7.21 | pIC50 (HLA-B*1801): 6.44 | pIC50 (HLA-B*4002): 6.18 | pIC50 (HLA-B*4001): 6.16

SEAIHTFQY
pIC50 (HLA-B*4402; B*4402): 7.74 | pIC50 (HLA-B*4403; B*4403): 7.80 | pIC50 (HLA-B*1801; B*1801): 7.60 | pIC50 (HLA-B*4002; B*4002): 5.74 | pIC50 (HLA-B*4001; B*4001): 5.54

TEPAAVGVGAV
pIC50 (HLA-B*4501; B*4501): 5.08 | pIC50 (HLA-B*4403; B*4403): 6.34 | pIC50 (HLA-B*1801; B*1801): < 5.09 | pIC50 (HLA-B*4001; B*4001): 6.03

NENLWVTVY
pIC50 (HLA-B*4402): 6.34 | pIC50 (HLA-B*4403): 6.65 | pIC50 (HLA-B*1801): 7.42 | pIC50 (HLA-B*4002): 4.93 | pIC50 (HLA-B*4001): < 4.14

AENLWTTVY
pIC50 (HLA-B*4402): 7.29 | pIC50 (HLA-B*4403): 7.30 | pIC50 (HLA-B*4001): 6.61

AENLTVTVY
pIC50 (HLA-B*4402): 6.49 | pIC50 (HLA-B*4501): 6.10 | pIC50 (HLA-B*4403): 6.68 | pIC50 (HLA-B*4001): 6.16

CC[C@H](C)[C@H](NC(=O)[C@@H](NC(=O)[C@H](CS)NC(=O)[C@@H](NC(=O)[C@@H]1CCCN1C(=O)[C@@H]1CCCN1C(=O)[C@H](CCC(N)=O)NC(=O)[C@@H]1CCCN1C(=O)[C@H](CC(C)C)NC(=O)[C@H](CCCNC(=N)N)NC(=O)[C@H](CCC(=O)O)NC(=O)CN)[C@@H](C)CC)[C@@H](C)O)C(=O)O
pIC50 (HLA-B*4403; B*4403): 8.60 | pIC50 (HLA-B*4002; B*4002): 8.41
